In PubChem BioAssay (NCI):
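Grown in 96-well plates, cells were treated for 48 hours with each compound at five concentrations. Insufficient inhibition: endpoint recorded as highest concentration tested. TGI: concentration producing complete growth inhibition.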

Assays:
Test in all cases: NCI-60 cell line screen, 48 h
786-0 renal = system: 786-0 renal
A498 renal = system: A498 renal
CCRF-CEM leukemia = system: CCRF-CEM leukemia
EKVX NSCLC = system: EKVX NSCLC
HT29 colon = system: HT29 colon
K-562 leukemia = system: K-562 leukemia
NCI/ADR-RES ovarian = system: NCI/ADR-RES ovarian
OVCAR-8 ovarian = system: OVCAR-8 ovarian
SK-OV-3 ovarian = system: SK-OV-3 ovarian
TK-10 renal = system: TK-10 renal

| Structure (SMILES) | TGI (786-0 renal) | TGI (A498 renal) | TGI (CCRF-CEM leukemia) | TGI (EKVX NSCLC) | TGI (HT29 colon) | TGI (K-562 leukemia) | TGI (NCI/ADR-RES ovarian) | TGI (OVCAR-8 ovarian) | TGI (SK-OV-3 ovarian) | TGI (TK-10 renal) |
| --- | --- | --- | --- | --- | --- | --- | --- | --- | --- | --- |
| Cc1ccc(-c2cc(=O)c(=O)[nH][nH]2)cc1 | > 100 µM | > 100 µM | > 100 µM | > 100 µM | > 100 µM | > 100 µM | > 100 µM | > 100 µM | > 100 µM | > 100 µM |
| CN(C)NC1=NS(=O)(=O)c2cc3c(=O)n(C)[nH]c3cc2S1 | > 10 µM | > 10 µM | > 10 µM | > 10 µM | > 10 µM | > 10 µM | > 10 µM | > 10 µM | > 10 µM | > 10 µM |
| OCC1OC(n2cnc3c(Cl)nc(Nc4ccc(Cl)c(Cl)c4)nc32)CC1O (stereo not given) | 19.4 µM | 18.9 µM | 18.1 µM | 28.2 µM | 15.2 µM | 49.4 µM | 25.3 µM | 22.6 µM | 33.4 µM | 35.6 µM |
| Cn1c(=S)[nH]c(N)c(Cc2ccccc2)c1=O | > 100 µM | > 100 µM | > 100 µM | > 100 µM | > 100 µM | > 100 µM | > 100 µM | > 100 µM | > 100 µM | > 100 µM |
| CN(Cc1cnc2nc(N)nc(N)c2n1)c1ccc(C(=O)NCCCC(=O)O)cc1 | > 100 µM | > 100 µM | > 100 µM | > 100 µM | > 100 µM | > 100 µM | > 100 µM | > 100 µM | > 100 µM | > 100 µM |
| CCOC(=O)CC1Nc2ccccc2C12CCc1c([nH]c3ccccc13)C2C(=O)OCC (stereo not given) | > 100 µM | > 100 µM | > 100 µM | > 100 µM | 40.1 µM | > 100 µM | > 100 µM | > 100 µM | > 100 µM | > 100 µM |
| Cc1cc(N=Cc2c(CO)cnc(C)c2O)c(N=Cc2c(CO)cnc(C)c2O)cc1C | > 100 µM | > 100 µM | 80 µM | > 100 µM | > 100 µM | > 100 µM | > 100 µM | > 100 µM | > 100 µM | > 100 µM |
| CCN(CC)CCSc1c(C(C)=O)c(=O)n(-c2ccccc2)c(=S)n1-c1ccccc1 | 3.38 µM | 40.6 µM | > 100 µM | 32.7 µM | 37.7 µM | > 43.7 µM | 63.4 µM | 10.9 µM | > 100 µM | 17.2 µM |
| CC(=O)OCC1OC(O[C@H]2C=C[C@@H](C(=O)OCc3ccccc3)n3c(=O)n(-c4ccccc4)c(=O)n32)C(OC(C)=O)C(OC(C)=O)C1OC(C)=O (stereo not given in full) | 4.51 µM | 5.33 µM | > 19.9 µM | 3.9 µM | 3.49 µM | 8.72 µM | > 100 µM | 7.41 µM | 33.6 µM | 3.92 µM |
| CN1CCc2c(sc3ncn(Nc4ccc(F)cc4)c(=N)c23)C1 | > 100 µM | > 100 µM | > 100 µM | > 100 µM | > 100 µM | > 100 µM | > 100 µM | > 100 µM | > 100 µM | > 100 µM |
| O=C1c2ccccc2C(=O)N1NC1=NCCN1 | > 100 µM | > 100 µM | > 100 µM | > 100 µM | > 100 µM | > 100 µM | > 100 µM | > 100 µM | > 100 µM | > 100 µM |
| OC(Cc1cc(CC(O)(C(F)(F)F)C(F)(F)F)nc(CC(O)(C(F)(F)F)C(F)(F)F)c1)(C(F)(F)F)C(F)(F)F | 6.34 µM | 3.22 µM | > 10 µM | 9.32 µM | 6.24 µM | > 10 µM | 6.32 µM | > 10 µM | > 10 µM | > 10 µM |
| c1cc(CSc2ncnc3nc[nH]c23)ccn1 | > 100 µM | > 100 µM | > 100 µM | > 100 µM | > 100 µM | > 100 µM | > 100 µM | > 100 µM | > 100 µM | > 100 µM |
| COc1cc(C(c2ccc3c(c2)OCO3)C2SCCCS2)cc(OC)c1OC (stereo not given) | 9.68 µM | 5.11 µM | 3.56 µM | 19.6 µM | 3.42 µM | 4.73 µM | 6.11 µM | 64.8 µM | > 100 µM | > 100 µM |
| O=c1c2cc([N+](=O)[O-])ccc2n2n1CCCCC2 | > 100 µM | > 100 µM | > 100 µM | > 100 µM | > 100 µM | > 100 µM | > 100 µM | > 100 µM | > 100 µM | > 100 µM |
| CON[N+]([O-])=NC(C)C | > 100 µM | > 100 µM | > 100 µM | > 100 µM | > 100 µM | > 100 µM | > 100 µM | > 100 µM | > 100 µM | > 100 µM |
| N=c1oc2cc(O)ccc2cc1C(=O)Nc1cccc2ccccc12 | 17.3 µM | 18.7 µM | > 20.4 µM | 14.6 µM | 26.9 µM | > 42.7 µM | 4.43 µM | 18.3 µM | 27.6 µM | 7.68 µM |
| C=C(C)[C@H]1CC(=O)[C@@]2(C)C[C@H]3O[C@]3(C)CC/C=C(\C)CC[C@H]12 | > 100 µM | 73.9 µM | > 100 µM | > 100 µM | > 100 µM | 47.2 µM | > 100 µM | > 100 µM | > 100 µM | 71.1 µM |

| Structure (SMILES) | TGI (786-0 renal) | TGI (A498 renal) | TGI (CCRF-CEM leukemia) | TGI (EKVX NSCLC) | TGI (HT29 colon) | TGI (K-562 leukemia) | TGI (NCI/ADR-RES ovarian) | TGI (OVCAR-8 ovarian) | TGI (SK-OV-3 ovarian) | TGI (TK-10 renal) |
| --- | --- | --- | --- | --- | --- | --- | --- | --- | --- | --- |
| C=C(C)CCC(O)[C@](C)(O)[C@H]1[C@H](O)C[C@@]2(C)[C@@H]3CCc4c(cc(OC5OC(CO)C(O)C(O)C5O)c(O)c4C)C3(C)C(=O)C[C@]12C (stereo not given in full) | > 100 µM | > 100 µM | > 100 µM | > 100 µM | > 100 µM | > 100 µM | > 100 µM | > 100 µM | > 100 µM | > 100 µM |
| Cn1c(=O)c2c(=O)cc(N)[nH]c2n(C)c1=O | > 100 µM | > 100 µM | > 100 µM | > 100 µM | > 100 µM | > 100 µM | > 100 µM | > 100 µM | > 100 µM | > 100 µM |
| CC1(C)N([O-])[N+](=O)C1(C)O (stereo not given) | > 100 µM | > 100 µM | > 100 µM | > 100 µM | > 100 µM | > 100 µM | > 100 µM | > 100 µM | > 100 µM | > 100 µM |
| c1ccc2c(c1)-c1ccccc1C2NC1=NCCO1 | 84.5 µM | 34 µM | > 100 µM | > 100 µM | 60.6 µM | > 100 µM | > 100 µM | 57.2 µM | > 100 µM | 83.6 µM |
| CC/C=C\C=C/C(=O)N/C=C/CCC | > 100 µM | > 100 µM | > 100 µM | > 100 µM | > 100 µM | > 100 µM | > 100 µM | > 100 µM | > 100 µM | > 100 µM |
| S=C(S)NCCN1CCNCC1 | 77 µM | > 100 µM | > 100 µM | > 100 µM | > 100 µM | > 100 µM | > 100 µM | 95.3 µM | > 100 µM | 58.4 µM |
| CCCCCCCCCCCCCCCC(=O)OC1C(O)C(O)C(O)C(O)C12CO2 (stereo not given) | 41.9 µM | > 100 µM | 41.1 µM | 61.4 µM | > 100 µM | 67.8 µM | > 100 µM | 57.5 µM | > 100 µM | > 100 µM |
| COCCCNc1c2ccccc2nc2ccccc12 | 17.9 µM | 15.2 µM | 60.6 µM | 27.3 µM | 51.8 µM | 23.6 µM | 33.6 µM | 15.5 µM | 12.4 µM | 89.8 µM |
| C/C(=N\O)c1cccc(Nc2c3ccccc3nc3occc23)c1 | 28.3 µM | > 100 µM | > 100 µM | 50.6 µM | 95.7 µM | > 100 µM | > 100 µM | 83 µM | 36.8 µM | 44.3 µM |
| CC(C)c1c(O[Si](C(C)C)(C(C)C)C(C)C)cc2c(c1O)CC[C@H]1C(C)(C)CCC[C@]21C | > 100 µM | > 100 µM | > 100 µM | > 100 µM | > 100 µM | > 100 µM | > 100 µM | > 100 µM | > 100 µM | > 100 µM |
| O=C(/C=C/c1cccc(Br)c1)N1CCN(CCOC(c2ccccc2)c2ccccc2)CC1 | > 100 µM | > 100 µM | 39.8 µM | > 100 µM | 81.5 µM | 55 µM | > 100 µM | > 100 µM | > 100 µM | > 100 µM |
| CC(C)C(/C=C/c1ccc(Cl)cc1)=N\NC(=O)N/N=C(/C=C/c1ccc(Cl)cc1)C(C)C | 33.5 µM | 33.9 µM | > 100 µM | 50.5 µM | > 100 µM | > 100 µM | 78.9 µM | 38 µM | 93.1 µM | 51.3 µM |
| COc1ccc2nc3cc(Cl)ccc3c(NCCCCCC(=O)NC(COc3ccc4ccc5cccnc5c4n3)COc3ccc4ccc5cccnc5c4n3)c2c1 | 28.8 µM | 31 µM | 10.5 µM | 58 µM | > 100 µM | 26.3 µM | 73.7 µM | > 100 µM | > 100 µM | 32 µM |
| COc1cc(OC)c(/C=N\Nc2nc3ccccc3c(=O)n2-c2ccccc2)c(OC)c1 | 37.6 µM | 41.1 µM | 51.6 µM | 63.7 µM | 54.3 µM | > 100 µM | 46.9 µM | > 64 µM | 77.6 µM | > 66 µM |
| C#CCn1c(=O)ccn(/C(=C/C(=O)OCC)C(=O)OCC)c1=O | 32.5 µM | 30.8 µM | 6.35 µM | 20.3 µM | 5.64 µM | > 100 µM | 13.8 µM | 5.11 µM | > 100 µM | 3.68 µM |
| CCCCCCCCCCCCc1ccsc1-c1ccc(-c2ccc(-c3sccc3CCCCCCCCCCCC)s2)s1 | > 100 µM | > 100 µM | > 100 µM | > 100 µM | > 100 µM | > 100 µM | > 100 µM | > 100 µM | > 100 µM | > 100 µM |
| O=C(OCC(OC(=O)c1ccccc1)C1CC(C2(O)CCCCC2)C(=O)O1)c1ccccc1 (stereo not given) | > 25 µM | > 25 µM | > 25 µM | > 25 µM | > 25 µM | > 25 µM | > 25 µM | > 25 µM | > 25 µM | > 25 µM |
| COC(=O)c1c2c(cc3c1CC1(C3)Cc3cc4c(c(C(=O)OC)c3C1)CCC4)CCC2 | > 100 µM | > 100 µM | > 100 µM | > 100 µM | > 100 µM | > 100 µM | > 100 µM | > 100 µM | > 100 µM | > 100 µM |
